Results reported in the NIST ThermoML archive (doi:10.1021/acs.jced.5b00051).
Numbers after ± are expanded uncertainties.

Test: molar heat capacity at constant pressure
Settings: 101.33 kPa, Liquid, Large sample (1 g) DSC

COCCOCCOCCO [2-[2-(2-methoxyethoxy)ethoxy]ethanol]
Settings	molar heat capacity at constant pressure [J/K/mol]
275.15 K	352.2 ± 5.5
277.15 K	352.6 ± 5.5
279.15 K	352.9 ± 5.5
281.15 K	353.2 ± 5.5
283.15 K	353.6 ± 5.5
285.15 K	353.9 ± 5.5
287.15 K	354.3 ± 5.5
289.15 K	354.7 ± 5.5
291.15 K	355.1 ± 5.5
293.15 K	355.5 ± 5.5
295.15 K	355.9 ± 5.5
297.15 K	356.3 ± 5.5
298.15 K	356.6 ± 5.5
299.15 K	356.8 ± 5.5
301.15 K	357.2 ± 5.5
303.15 K	357.7 ± 5.5
305.15 K	358.1 ± 5.5
307.15 K	358.6 ± 5.6
309.15 K	359.1 ± 5.6
311.15 K	359.6 ± 5.6
313.15 K	360.1 ± 5.6
315.15 K	360.6 ± 5.6
317.15 K	361.2 ± 5.6
319.15 K	361.7 ± 5.6
321.15 K	362.2 ± 5.6
323.15 K	362.8 ± 5.6
325.15 K	363.4 ± 5.6
327.15 K	364 ± 5.6
329.15 K	364.5 ± 5.6
331.15 K	365.1 ± 5.7
333.15 K	365.8 ± 5.7
335.15 K	366.4 ± 5.7
337.15 K	367 ± 5.7
339.15 K	367.6 ± 5.7

COCCOCCO [2-(2-methoxyethoxy)ethanol]
Settings	molar heat capacity at constant pressure [J/K/mol]
275.15 K	261.9 ± 4.1
277.15 K	262.3 ± 4.1
279.15 K	262.7 ± 4.1
281.15 K	263.2 ± 4.1
283.15 K	263.6 ± 4.1
285.15 K	264.1 ± 4.1
287.15 K	264.6 ± 4.1
289.15 K	265.1 ± 4.1
291.15 K	265.6 ± 4.1
293.15 K	266.1 ± 4.1
295.15 K	266.6 ± 4.1
297.15 K	267.1 ± 4.1
298.15 K	267.4 ± 4.1
299.15 K	267.6 ± 4.1
301.15 K	268.2 ± 4.2
303.15 K	268.7 ± 4.2
305.15 K	269.3 ± 4.2
307.15 K	269.8 ± 4.2
309.15 K	270.4 ± 4.2
311.15 K	271 ± 4.2
313.15 K	271.6 ± 4.2
315.15 K	272.2 ± 4.2
317.15 K	272.8 ± 4.2
319.15 K	273.4 ± 4.2
321.15 K	274 ± 4.2
323.15 K	274.7 ± 4.3
325.15 K	275.3 ± 4.3
327.15 K	276 ± 4.3
329.15 K	276.6 ± 4.3
331.15 K	277.3 ± 4.3
333.15 K	278 ± 4.3
335.15 K	278.7 ± 4.3
337.15 K	279.4 ± 4.3
339.15 K	280.1 ± 4.3

CCCCOCCO [2-butoxyethan-1-ol]
Settings	molar heat capacity at constant pressure [J/K/mol]
275.15 K	261.7 ± 4.1
277.15 K	262.6 ± 4.1
279.15 K	263.6 ± 4.1
281.15 K	264.6 ± 4.1
283.15 K	265.6 ± 4.1
285.15 K	266.6 ± 4.1
287.15 K	267.6 ± 4.1
289.15 K	268.5 ± 4.2
291.15 K	269.5 ± 4.2
293.15 K	270.5 ± 4.2
295.15 K	271.5 ± 4.2
297.15 K	272.5 ± 4.2
298.15 K	273 ± 4.2
299.15 K	273.5 ± 4.2
301.15 K	274.5 ± 4.3
303.15 K	275.5 ± 4.3
305.15 K	276.5 ± 4.3
307.15 K	277.5 ± 4.3
309.15 K	278.5 ± 4.3
311.15 K	279.5 ± 4.3
313.15 K	280.5 ± 4.3
315.15 K	281.5 ± 4.4
317.15 K	282.5 ± 4.4
319.15 K	283.5 ± 4.4
321.15 K	284.5 ± 4.4
323.15 K	285.5 ± 4.4
325.15 K	286.5 ± 4.4
327.15 K	287.5 ± 4.5
329.15 K	288.5 ± 4.5
331.15 K	289.6 ± 4.5
333.15 K	290.6 ± 4.5
335.15 K	291.6 ± 4.5
337.15 K	292.6 ± 4.5
339.15 K	293.6 ± 4.5
